According to patent US4665019A, “Method for measuring the plasma levels of an inhibitor of (Na^+ +K^ +” (University of Maryland, priority 1983, dated 1987):

Assays:
[1] = system: ATP generating reaction system; experiment: Efficacy of the ATP generating reaction system (rates of NADH oxidation on addition of ADP); assay type: biochemical; settings: at the concentrations shown in FIGS. 1a and 1b; addition of 10-50 μM ADP
[2] = biological target: T1, canine kidney (Na^+ +K^+)ATPase (Canis lupus familiaris, UniProt P50997); experiment: (Na+ +K+)ATPase activity assay coupled to NADH oxidation (A340); assay type: biochemical, canine (dog); settings: for time course of inhibition of (Na^+ +K^+)ATPase activity: FIG. 1a/1b, continuous recording of A340, 37° C.
T1 construct: suspending canine kidney (Na^+ +K^+)ATPase; purchased Sigma Chemical; host or cells: canine kidney (tissue-derived membrane preparation)
Procedure: The (Na^+ +K^+)ATPase preparation employed in the assay of this example comprised unsealed membrane sheets as described in Jorgensen, P. L. Biochim. Biophys. Acta 356: 36-52 (1974). Thus, it was not able to distinguish between an external and an internal site of action for the inhibitor.
The ATPase assay solution employed contained 400 μl of an ATPase cocktail and 580 μl of water. The ATPase cocktail was such that the final reaction conditions were (in 1.0 ml) as follows: 20 mM KCl; 100 mM NaCl; 4.5 mM MgSO4; 5 mM EGTA; 3 mM Na2 ATP; 1.2 mM tricyclohexylammonium phosphoenolpyruvate (PEP), 0.25 NADH, 40 mM trimethylaminoethanesulphonic acid (TES)-Tris, pH 7.4; 1.2 units lactate dehydrogenase (LDH); and 1.2 units pyruvate kinase (PK), (ATP, PEP, NADH, LDH and PK were purchased from Boehringer Mannheim Biochemicals; LDG and PK enzymes were obtained as glycerol suspensions.)
The (Na^+ +K^+)ATPase suspension was prepared for assay by suspending canine kidney (Na^+ +K^+)ATPase (obtained from Sigma Chemical having a specific activity of 5-6 μmol per min per mg protein and containing a ouabain-insensitive Mg^2+ -ATPase activity which was less than 2% of the total steady-state ATPase activity) in 500 μM Na4 EDTA, 10 mM (TES)-Tris pH 7.4, at a protein concentration of 150 μg/ml. The resuspended enzyme was incubated at 25° C. for 3 hours and then stored on ice.
The assay was initiated by the rapid addition of 20 μl of ATPase suspension (3 μg protein) to 980 μl of ATPase assay solution in a 1.0 ml cuvette at 37° C. The decrease in ultraviolet light absorbance at 340 nm (A340) due to NADH oxidation (ε=6.22×10^3 1 mol^-1 cm^-1) was continuously recorded using a Beckman Model 25 UV-VIS recording spectrophotometer.
FIG. 1a illustrates ATPase inhibition by ouabain. […] The control contained an appropriate quantity of DMSO.
FIG. 1b illustrates ATPase inhibition by vanadate. […] The control contained in appropriate quantity of water. […]
Percent inhibition was calculated as: [formula]

Compound | effect on the efficacy of the ATP generating reaction system [1] | time course of inhibition of (Na^+ +K^+)ATPase activity [2] | Ki ([2]; from steady-state levels of (Na^+ +K^+)ATPase activity at various vanadate concentrations, 37° C.)
[Na+].[Na+].[Na+].[O]=[V]([O-])([O-])[O-] [vanadate, Na3 VO4] | Neither ouabain nor vanadate, at the concentrations shown in FIGS. 1a and 1b, had a significant effect | the effect of vanadate was apparent in the first few seconds of the reaction | 900 nM
C[C@@H]1O[C@@H](O[C@H]2C[C@@H](O)[C@]3(CO)[C@H]4[C@H](O)C[C@]5(C)[C@@H](C6=CC(=O)OC6)CC[C@]5(O)[C@@H]4CC[C@]3(O)C2)[C@H](O)[C@H](O)[C@H]1O [ouabain] | Neither ouabain nor vanadate, at the concentrations shown in FIGS. 1a and 1b, had a significant effect | no significant effect on the reaction for the first 30 seconds, and thereafter causes a progressive, dose-dependent increase in inhibition | –
